{"source": "patent US7157241B2", "about": "“Serine protease genes related to DPPIV” (Ferring BV, priority 2000, dated 2007)", "type_in_all_cases": "biochemical", "key": {"DPRP-2 [1]": {"biological_target": "T1, DPRP-2 (Homo sapiens, UniProt Q86TI2)", "T1 construct": "DNA fragments encoding the full length polypeptide DPRP-2 were amplified using PCR oligonucleotide primers; made in house; host or cells: PEAK or COS-1 cells, transient transfection", "T1 sequence (Q86TI2 whole entry, the tested form may be a part)": "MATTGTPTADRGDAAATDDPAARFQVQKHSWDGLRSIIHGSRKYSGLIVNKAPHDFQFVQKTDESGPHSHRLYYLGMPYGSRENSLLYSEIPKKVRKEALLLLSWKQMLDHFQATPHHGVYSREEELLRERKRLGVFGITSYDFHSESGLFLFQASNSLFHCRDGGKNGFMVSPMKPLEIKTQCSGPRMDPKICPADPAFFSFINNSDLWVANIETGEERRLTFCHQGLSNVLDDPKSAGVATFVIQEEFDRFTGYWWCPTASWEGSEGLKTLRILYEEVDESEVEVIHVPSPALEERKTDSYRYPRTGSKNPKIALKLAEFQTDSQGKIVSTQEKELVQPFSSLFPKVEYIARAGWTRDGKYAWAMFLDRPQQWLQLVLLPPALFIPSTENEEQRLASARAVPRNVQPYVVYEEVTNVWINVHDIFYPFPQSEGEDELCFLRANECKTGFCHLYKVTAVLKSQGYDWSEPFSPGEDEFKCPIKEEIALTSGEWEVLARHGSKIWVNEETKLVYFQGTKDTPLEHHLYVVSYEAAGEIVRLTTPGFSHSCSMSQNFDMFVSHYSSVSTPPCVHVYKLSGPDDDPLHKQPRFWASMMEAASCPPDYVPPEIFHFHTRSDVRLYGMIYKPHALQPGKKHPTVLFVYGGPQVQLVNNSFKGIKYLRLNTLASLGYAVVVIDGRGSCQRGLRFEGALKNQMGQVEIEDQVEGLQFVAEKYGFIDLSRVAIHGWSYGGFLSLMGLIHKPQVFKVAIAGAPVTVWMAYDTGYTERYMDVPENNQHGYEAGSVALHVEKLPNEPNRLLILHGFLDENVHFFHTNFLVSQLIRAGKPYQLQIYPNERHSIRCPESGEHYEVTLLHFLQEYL", "experiment": "Inhibition of DPRP-2 by protease inhibitors (Ala-Pro-AMC fluorescence)", "conditions": "for Residual activity (% of control) DPRP-2: preincubated 30 min at room temperature, Ala-Pro-AMC 100 μM", "protocol": "(§1) The kinetic properties of recombinant DPRP-1 and DPRP-2 were determined in a continuous fluorimetric assay. Buffer, pH and temperature dependence optimization led to the following assay conditions: Enzyme assays were performed in 50 mM PBS, pH7.4 50 μl (50 μg/ml) of purified enzymes were mixed with 1 μl of different concentration of Ala-Pro-AMC (Enzyme Systems). Plates were then incubated at 37° C. for 30 min, and fluorescence was detected using a Wallac 1420 Fluorimeter with λex40355 and λem535.\n(§2) The two purified proteases and DPPIV were preincubated with inhibitors at room temperature for 30 min. Substrate, Ala-Pro-AMC (100 μM), was then added, and the fluorescence intensity was recorded as 60 readings during a 60 min period."}, "DPRP-1 [2]": {"biological_target": "T2, DPRP-1 (Homo sapiens, UniProt Q6V1X1)", "T2 construct": "DNA fragments encoding the full-length polypeptide DPRP-1 were amplified using PCR oligonucleotide primers; made in house; host or cells: PEAK or COS-1 cells, transient transfection", "T2 sequence (Q6V1X1 17-898)": "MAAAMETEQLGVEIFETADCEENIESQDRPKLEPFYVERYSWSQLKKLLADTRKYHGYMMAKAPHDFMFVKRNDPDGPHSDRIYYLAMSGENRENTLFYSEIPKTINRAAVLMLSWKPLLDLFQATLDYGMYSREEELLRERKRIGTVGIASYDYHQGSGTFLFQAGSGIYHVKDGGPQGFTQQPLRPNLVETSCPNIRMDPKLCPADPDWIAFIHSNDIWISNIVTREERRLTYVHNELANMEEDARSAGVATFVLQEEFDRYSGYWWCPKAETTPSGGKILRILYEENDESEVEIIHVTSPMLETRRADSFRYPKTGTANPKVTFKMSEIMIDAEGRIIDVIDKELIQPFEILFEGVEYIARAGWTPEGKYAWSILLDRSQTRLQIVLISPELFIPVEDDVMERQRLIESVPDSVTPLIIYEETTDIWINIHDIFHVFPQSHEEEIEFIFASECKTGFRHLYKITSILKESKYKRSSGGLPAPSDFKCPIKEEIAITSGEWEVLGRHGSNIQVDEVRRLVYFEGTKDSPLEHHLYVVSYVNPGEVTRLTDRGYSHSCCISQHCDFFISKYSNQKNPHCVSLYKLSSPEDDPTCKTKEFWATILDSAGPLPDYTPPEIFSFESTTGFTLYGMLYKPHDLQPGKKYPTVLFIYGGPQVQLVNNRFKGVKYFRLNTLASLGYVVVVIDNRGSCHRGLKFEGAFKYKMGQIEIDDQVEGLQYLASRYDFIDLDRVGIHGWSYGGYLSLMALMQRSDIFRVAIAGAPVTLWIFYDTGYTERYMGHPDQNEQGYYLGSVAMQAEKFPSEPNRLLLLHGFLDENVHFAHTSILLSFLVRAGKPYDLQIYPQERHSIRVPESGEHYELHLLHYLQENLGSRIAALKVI", "experiment": "Inhibition of DPRP-1 by protease inhibitors (Ala-Pro-AMC fluorescence)", "conditions": "for Residual activity (% of control) DPRP-1: preincubated 30 min at room temperature, Ala-Pro-AMC 100 μM", "protocol": "as §1, §2"}, "DPPIV [3]": {"biological_target": "T3, DPPIV (Homo sapiens, UniProt P27487)", "T3 sequence (P27487 whole entry)": "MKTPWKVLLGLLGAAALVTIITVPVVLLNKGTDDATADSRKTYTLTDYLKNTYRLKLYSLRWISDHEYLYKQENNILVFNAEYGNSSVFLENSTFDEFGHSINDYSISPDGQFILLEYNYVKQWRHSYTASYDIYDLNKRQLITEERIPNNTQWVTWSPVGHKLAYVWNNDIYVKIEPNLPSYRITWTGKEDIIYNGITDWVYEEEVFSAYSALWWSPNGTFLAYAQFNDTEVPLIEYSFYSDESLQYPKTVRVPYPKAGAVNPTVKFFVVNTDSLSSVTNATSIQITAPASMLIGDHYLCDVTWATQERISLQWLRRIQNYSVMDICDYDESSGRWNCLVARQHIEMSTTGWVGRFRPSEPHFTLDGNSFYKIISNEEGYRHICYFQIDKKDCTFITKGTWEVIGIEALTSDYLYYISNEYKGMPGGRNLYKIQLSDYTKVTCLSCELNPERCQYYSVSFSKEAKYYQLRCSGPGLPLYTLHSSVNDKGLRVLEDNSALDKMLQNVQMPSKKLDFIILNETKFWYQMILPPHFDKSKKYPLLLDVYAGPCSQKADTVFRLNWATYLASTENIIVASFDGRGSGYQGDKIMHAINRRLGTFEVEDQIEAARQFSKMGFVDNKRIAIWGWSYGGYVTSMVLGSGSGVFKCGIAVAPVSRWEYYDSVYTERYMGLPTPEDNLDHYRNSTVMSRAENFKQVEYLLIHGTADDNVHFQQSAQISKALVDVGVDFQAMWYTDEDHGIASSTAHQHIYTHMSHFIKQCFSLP", "experiment": "Inhibition of DPPIV by protease inhibitors (Ala-Pro-AMC fluorescence)", "conditions": "for Residual activity (% of control) DPPIV: preincubated 30 min at room temperature, Ala-Pro-AMC 100 μM", "protocol": "as §1, §2"}, "DPRP-2 [4]": {"biological_target": "T1, DPRP-2", "experiment": "Substrate specificity, DPRP-2", "conditions": "substrate 125 μM, 30-minute incubation with enzyme", "protocol": "(§3) In addition to Ala-Pro-AMC, additional substrates tested also confirmed that DPRP-1 and DPRP-2 are dipeptidyl peptidases. The data were derived by determining the fluorescence change following a 30-minute incubation of the substrates (125 μM) with enzymes as a percentage of the fluorescence measured at Ala-Pro-AMC and Gly-Pro-AMC were the only good substrates among those tested."}, "DPPIV [5]": {"biological_target": "T3, DPPIV", "experiment": "Substrate specificity, DPPIV", "conditions": "substrate 125 μM, 30-minute incubation with enzyme", "protocol": "as §3"}, "DPRP-1 [6]": {"biological_target": "T2, DPRP-1", "experiment": "Substrate specificity, DPRP-1", "conditions": "substrate 125 μM, 30-minute incubation with enzyme", "protocol": "as §3"}, "DPRP-2 [7]": {"biological_target": "T1, DPRP-2", "experiment": "Continuous fluorimetric assay, kinetic properties of recombinant DPRP-2", "conditions": "substrate Ala-Pro-AMC; 50 mM PBS, pH7.4, 37° C., 30 min", "protocol": "as §1"}, "DPRP-1 [8]": {"biological_target": "T2, DPRP-1", "experiment": "Continuous fluorimetric assay, kinetic properties of recombinant DPRP-1", "conditions": "substrate Ala-Pro-AMC; 50 mM PBS, pH7.4, 37° C., 30 min", "protocol": "as §1"}, "[9]": {"conditions": "protease inhibitor panel of Table 5"}}, "note": "Square brackets hold non-standard residues; d marks the D form. Peptide text beside a SMILES is read from it. * marks the point of attachment. Sta = CC(C)C[C@H](N)[C@@H](O)CC(=O)O; pNA = O=[N+]([O-])c1ccc(N*)cc1; AMC = Cc1cc(=O)oc2cc(N*)ccc12; Isovaleryl = CC(C)CC(=O)*", "data": [{"compound": "OCCS", "note": "[B-Mercaptoethonal]", "values": [{"measurement": "Residual activity (% of control) DPRP-2", "setting": "DPRP-2 [1]; inhibitor 100 mM", "value": "84.0 % of control"}, {"measurement": "Residual activity (% of control) DPRP-1", "setting": "DPRP-1 [2]; inhibitor 100 mM", "value": "93.2 % of control"}, {"measurement": "Residual activity (% of control) DPPIV", "setting": "DPPIV [3]; inhibitor 100 mM", "value": "98.0 % of control"}]}, {"compound": "O=C(Nc1ccc([N+](=O)[O-])cc1)[C@@H]1CCCN1", "note": "[Pro-pNA]", "values": [{"measurement": "% Change in Fluorescence at 30 minutes DPRP-2", "setting": "DPRP-2 [4]", "value": "−2.5", "unit": "%"}, {"measurement": "% Change in Fluorescence at 30 minutes DPPIV", "setting": "DPPIV [5]", "value": 0.0, "unit": "%"}, {"measurement": "% Change in Fluorescence at 30 minutes DPRP-1", "setting": "DPRP-1 [6]", "value": "−1", "unit": "%"}]}, {"compound": "C[C@H](N)C(=O)N1CCC[C@H]1C(=O)Nc1ccc([N+](=O)[O-])cc1", "note": "[Ala-Pro-pNA] (H-Ala-Pro-pNA)", "values": [{"measurement": "% Change in Fluorescence at 30 minutes DPRP-2", "setting": "DPRP-2 [4]", "value": 44.0, "unit": "%"}, {"measurement": "% Change in Fluorescence at 30 minutes DPPIV", "setting": "DPPIV [5]", "value": 29.5, "unit": "%"}, {"measurement": "% Change in Fluorescence at 30 minutes DPRP-1", "setting": "DPRP-1 [6]", "value": 45.5, "unit": "%"}]}, {"compound": "Cc1cc(=O)oc2cc(NC(=O)[C@@H]3CCCN3C(=O)[C@H](C)N)ccc12", "note": "[Ala-Pro-AMC] (H-Ala-Pro-{AMC})", "values": [{"measurement": "Km", "setting": "DPRP-2 [7]", "value": 161, "unit": "µM"}, {"measurement": "Km", "setting": "DPRP-1 [8]", "value": 208, "unit": "µM"}, {"measurement": "% Change in Fluorescence at 30 minutes DPRP-2", "setting": "DPRP-2 [4]", "value": 127.5, "unit": "%"}, {"measurement": "% Change in Fluorescence at 30 minutes DPPIV", "setting": "DPPIV [5]", "value": 379.0, "unit": "%"}, {"measurement": "% Change in Fluorescence at 30 minutes DPRP-1", "setting": "DPRP-1 [6]", "value": 239.0, "unit": "%"}]}, {"compound": "NCCc1ccc(S(=O)(=O)F)cc1", "note": "[AEBSF]", "values": [{"measurement": "Residual activity (% of control) DPRP-2", "setting": "DPRP-2 [1]; inhibitor 5 mM", "value": "23.9 % of control"}, {"measurement": "Inhibition of DPRP-2 (in words)", "setting": "DPRP-2 [1]; [9]", "value": "strong inhibition"}, {"measurement": "Residual activity (% of control) DPRP-1", "setting": "DPRP-1 [2]; inhibitor 5 mM", "value": "29.6 % of control"}, {"measurement": "Inhibition of DPRP-1 (in words)", "setting": "DPRP-1 [2]; [9]", "value": "strong inhibition"}, {"measurement": "Residual activity (% of control) DPPIV", "setting": "DPPIV [3]; inhibitor 5 mM", "value": "21.1 % of control"}, {"measurement": "Inhibition of DPPIV (in words)", "setting": "DPPIV [3]; [9]", "value": "strong inhibition"}]}, {"compound": "CC(C)CC(=O)N[C@H](C(=O)N[C@H](C(=O)N[C@@H](CC(C)C)[C@@H](O)CC(=O)N[C@@H](C)C(=O)N[C@@H](CC(C)C)[C@@H](O)CC(=O)O)C(C)C)C(C)C", "note": "[Pepstatin] (Isovaleryl-VV[Sta]A[Sta]-OH)", "values": [{"measurement": "Residual activity (% of control) DPRP-2", "setting": "DPRP-2 [1]; inhibitor 2 μg/ml", "value": "95.0 % of control"}, {"measurement": "Residual activity (% of control) DPRP-1", "setting": "DPRP-1 [2]; inhibitor 2 μg/ml", "value": "97.3 % of control"}, {"measurement": "Residual activity (% of control) DPPIV", "setting": "DPPIV [3]; inhibitor 2 μg/ml", "value": "93.5 % of control"}]}, {"compound": "O[C@@H](CS)[C@@H](O)CS", "note": "[DTT]", "values": [{"measurement": "Residual activity (% of control) DPRP-2", "setting": "DPRP-2 [1]; inhibitor 2 mM", "value": "94.8 % of control"}, {"measurement": "Residual activity (% of control) DPRP-1", "setting": "DPRP-1 [2]; inhibitor 2 mM", "value": "100.1 % of control"}, {"measurement": "Residual activity (% of control) DPPIV", "setting": "DPPIV [3]; inhibitor 2 mM", "value": "98.3 % of control"}]}, {"compound": "Aprotinin", "values": [{"measurement": "Residual activity (% of control) DPRP-2", "setting": "DPRP-2 [1]; inhibitor 5 μg/ml", "value": "63.2 % of control"}, {"measurement": "Residual activity (% of control) DPRP-1", "setting": "DPRP-1 [2]; inhibitor 5 μg/ml", "value": "77.5 % of control"}, {"measurement": "Residual activity (% of control) DPPIV", "setting": "DPPIV [3]; inhibitor 5 μg/ml", "value": "80.2 % of control"}]}, {"compound": "C[C@H](NC(=O)[C@@H](N)CCCCN)C(=O)Nc1ccc([N+](=O)[O-])cc1", "note": "[Lys-Ala-pNA] (H-Lys-Ala-pNA)", "values": [{"measurement": "% Change in Fluorescence at 30 minutes DPRP-2", "setting": "DPRP-2 [4]", "value": 0.5, "unit": "%"}, {"measurement": "% Change in Fluorescence at 30 minutes DPPIV", "setting": "DPPIV [5]", "value": 0.5, "unit": "%"}, {"measurement": "% Change in Fluorescence at 30 minutes DPRP-1", "setting": "DPRP-1 [6]", "value": 2.5, "unit": "%"}]}, {"compound": "NCC(=O)N[C@@H](CCCN=C(N)N)C(=O)Nc1ccc([N+](=O)[O-])cc1", "note": "[Gly-Arg-pNA] (H-Gly-Arg-pNA)", "values": [{"measurement": "% Change in Fluorescence at 30 minutes DPRP-2", "setting": "DPRP-2 [4]", "value": "−0.5", "unit": "%"}, {"measurement": "% Change in Fluorescence at 30 minutes DPPIV", "setting": "DPPIV [5]", "value": 0.0, "unit": "%"}, {"measurement": "% Change in Fluorescence at 30 minutes DPRP-1", "setting": "DPRP-1 [6]", "value": "−4.5", "unit": "%"}]}, {"compound": "Cc1cc(=O)oc2cc(NC(=O)[C@@H]3CCCN3C(=O)CN)ccc12", "note": "[Gly-Pro-AMC] (H-Gly-Pro-{AMC})", "values": [{"measurement": "% Change in Fluorescence at 30 minutes DPRP-2", "setting": "DPRP-2 [4]", "value": 205.0, "unit": "%"}, {"measurement": "% Change in Fluorescence at 30 minutes DPPIV", "setting": "DPPIV [5]", "value": 444.0, "unit": "%"}, {"measurement": "% Change in Fluorescence at 30 minutes DPRP-1", "setting": "DPRP-1 [6]", "value": 341.5, "unit": "%"}]}, {"compound": "C[C@H](N)C(=O)N[C@@H](Cc1ccccc1)C(=O)N1CCC[C@H]1C(=O)Nc1ccc([N+](=O)[O-])cc1", "note": "[Ala-Phe-Pro-pNA] (H-Ala-Phe-Pro-pNA)", "values": [{"measurement": "% Change in Fluorescence at 30 minutes DPRP-2", "setting": "DPRP-2 [4]", "value": "−0.5", "unit": "%"}, {"measurement": "% Change in Fluorescence at 30 minutes DPPIV", "setting": "DPPIV [5]", "value": 2.0, "unit": "%"}, {"measurement": "% Change in Fluorescence at 30 minutes DPRP-1", "setting": "DPRP-1 [6]", "value": "−4", "unit": "%"}]}, {"compound": "O=C(O)CN(CCN(CC(=O)O)CC(=O)O)CC(=O)O", "note": "[EDTA]", "values": [{"measurement": "Residual activity (% of control) DPRP-2", "setting": "DPRP-2 [1]; inhibitor 2 mM", "value": "86.0 % of control"}, {"measurement": "Residual activity (% of control) DPRP-1", "setting": "DPRP-1 [2]; inhibitor 2 mM", "value": "91.5 % of control"}, {"measurement": "Residual activity (% of control) DPPIV", "setting": "DPPIV [3]; inhibitor 2 mM", "value": "93.5 % of control"}]}, {"compound": "CC(=O)N[C@@H](CC(C)C)C(=O)N[C@@H](CC(C)C)C(=O)N[C@H](C=O)CCCNC(=N)N", "note": "[Leupeptin]", "values": [{"measurement": "Residual activity (% of control) DPRP-2", "setting": "DPRP-2 [1]; inhibitor 50 μg/ml", "value": "90.4 % of control"}, {"measurement": "Residual activity (% of control) DPRP-1", "setting": "DPRP-1 [2]; inhibitor 50 μg/ml", "value": "91.1 % of control"}, {"measurement": "Residual activity (% of control) DPPIV", "setting": "DPPIV [3]; inhibitor 50 μg/ml", "value": "90.7 % of control"}]}]}
